Reference: patent publication US20250262299A1, “DOSING FOR TREATMENT WITH ANTI-FCRH5/ANTI-CD3 BISPECIFIC ANTIBODIES” (Genentech, Inc., priority 2022, published 2025)

Tests used:
[1] = system: human MM cell lines and primary human MM plasma cells; conditions: cells with a wide range of FcRH5 expression levels, including minimal expression; cited from earlier work
[2] = Compatibility testing in extension sets; type: physicochemical; conditions: IV infusion extension sets
Source text: Cevostamab will be administered as a fixed dose independent of body weight. Cevostamab will be administered to patients by IV infusion using standard IV bags where applicable. […] The drug product will be delivered by IV bag infusion, with a final cevostamab volume determined by the dose.

[3] = system: Fc (Fcγ) receptors; conditions: N297G non-glycosylated antibody; cited from earlier work
[4] = system: R/R MM; assay: Study GO39775 / cevostamab monotherapy clinical studies in patients with R/R MM; type: in vivo, human
Source text: As of November 2021, two studies are ongoing to confirm the safety and efficacy of cevostamab in this patient population. As such, combination with lenalidomide is expected to deepen and prolong response in patients in remission on the following basis: • FcRH5 is a cell-surface antigen whose expression is restricted to cells of the B linage, including plasma cells. […] Rationale for Cevostamab Dose
The dosing schedule has been modified from a 21-day cycle to a 28-day cycle to accommodate lenalidomide dosing and to ease patient treatment burden. […] A lower target dose of 90 mg Q2W will be the starting point of dose escalation towards 132 mg. These doses have been selected based on the full body of evidence available across cevostamab studies, considering PD, PK, safety, and efficacy data.

[5] = system: MM; conditions: lenalidomide maintenance, active vs. control; cited from earlier work
[6] = Study GO39775, 0.3/3.6/160 mg, patients with R/R MM
[7] = Study GO39775, preliminary findings
[8] = cevostamab monotherapy, patients with R/R MM

Molecule	cell killing [1]	stability in extension sets [2]	binding to Fc (Fcγ) receptors [3]	safety of target dose ([4]; Study GO39775, 160 mg every three weeks (Q3W))	induction of response with double step-up dosing [4, 6]	safety of double step-up dosing [4, 6]	clinical response in patients with the lowest FcRH5 expression [4, 7]	objective response in relation to baseline FcRH5 expression [4, 7]	efficacy [4, 8]	safety profile [4, 8]	overall survival (OS) [5]	progression-free survival (PFS) [5]
cevostamab: Fc-engineered, humanized, full-length non-glycosylated IgG1 kappa T-cell-dependent bispecific antibody (TDB) that binds FcRH5 and CD3	broadly active in cell killing	stable in extension sets	minimal binding	found to be safe	effective at inducing a response	safe	Clinical response has been observed	able to achieve an objective response to cevostamab treatment regardless of baseline FcRH5 expression	shown efficacy	acceptable safety profile	–	–
Nc1cccc2c1CN(C1CCC(=O)NC1=O)C2=O (stereo not drawn) [lenalidomide]	–	–	–	–	–	–	–	–	–	–	statistically significant increase	statistically significant increase
